Measured values reported in ChEMBL document CHEMBL1255230, “Chemical inhibitor of nonapoptotic cell death with therapeutic potential for ischemic brain injury” (Nat Chem Biol, 2005).
Active and inactive are the calls of the source. The calls are words filed in the database; no cut-off is given here.

Assays:
U-937 = assay: Inhibition of apoptosis in human U937 cells assessed as cell viability after 48 hrs by ATP based viability assay in presence of TNFalpha and CHX; type: functional
[1] = Inhibition of death receptor signaling mediated necroptotic cell death in human Jurkat cells deficient in FADD assessed as decreased levels of PE-conjugated LC3-II (autophagy marker) after 24 hrs by Western blot method in presence of TNFalpha; type: cell-based
[2] = Inhibition of death receptor signaling mediated necroptotic cell death in mouse L929 cells assessed as decreased levels of PE-conjugated autophagy marker LC3-II after 24 hrs by Western blot method in presence of TNFalpha; type: cell-based
[3] = Inhibition of death receptor signaling mediated necroptotic cell death in mouse 3T3 cells assessed as decreased levels of PE-conjugated autophagy marker LC3-II after 24 hrs by Western blot method in presence of rapamycin; type: cell-based; conditions: NIH3T3
[4] = Inhibition of death receptor signaling mediated necroptotic cell death in human Jurkat cells deficient in FADD and expressing RIP kinase assessed as cell viability after 48 hrs by FACS in presence of AP1510, zVAD-fmk; type: cell-based
[5] = Inhibition of death receptor signaling mediated necroptotic cell death in human Jurkat cells deficient in FADD and expressing RIP kinase domain assessed as cell viability after 48 hrs by FACS in presence of AP1510, zVAD-fmk; type: cell-based
[6] = Inhibition of death receptor signaling mediated necroptotic cell death in human U937 cell assessed as cell viability after 72 hrs by ATP based viability assay in presence of TNFalpha and zVAD.fmk; conditions: U-937
[7] = Inhibition of death receptor signaling mediated necrotic cell death in mouse 3T3 cells assessed as cell viability after 24 hrs by ATP based viability assay in presence of TNFalpha and zVAD.fmk; conditions: NIH3T3
[8] = Inhibition of death receptor signaling mediated necroptotic cell death in human Jurkat cell deficient in FADD assessed as changes in cell size after 24 hrs by forward and side scatter FACS analysis in presence of TNFalpha; type: cell-based
[9] = Inhibition of death receptor signaling mediated necroptotic cell death in human Jurkat cell deficient in FADD assessed as inhibition of plasma membrane permeability after 24 hrs by in presence of TNFalpha; type: cell-based
[10] = Inhibition of death receptor signaling mediated necroptotic cell death in human Jurkat cell deficient in FADD assessed as inhibition of mitochondrial dysfunction after 24 hrs by in presence of TNFalpha; type: cell-based
[11] = Inhibition of death receptor signaling mediated apoptosis in human Jurkat cell assessed as inhibition of plasma membrane permeability after 24 hrs by in presence of FasL, CHX and zVAD.fmk; type: cell-based
Jurkat [12] = assay: Effect on apoptosis in human Jurkat cell assessed as nuclear fragmentation by electron microscopy in presence of FasL and CHX; type: functional, cell-based
Jurkat [13] = assay: Inhibition of necrosis in human Jurkat cells assessed as nuclear condensation by bright field microscopy in presence of FasL, CHX and zVAD-fmk; type: functional, cell-based
Jurkat [14] = assay: Inhibition of necrosis in human Jurkat cells assessed as early loss of plasma membrane integrity by bright field microscopy in presence of FasL, CHX and zVAD-fmk; type: functional, cell-based
Jurkat [15] = assay: Inhibition of necrosis in human Jurkat cells deficient in FADD assessed as inhibition of organelle swelling by bright field microscopy in presence of TNFalpha; type: functional, cell-based
Jurkat [16] = assay: Inhibition of necrosis in human Jurkat cells deficient in FADD assessed as inhibition of early loss of plasma membrane integrity by bright field microscopy in presence of TNFalpha; type: functional, cell-based
Jurkat [17] = assay: Effect on plasma membrane integrity in human Jurkat cells; type: functional, cell-based
Jurkat [18] = assay: Effect on changes in cell size in human Jurkat cells; type: functional, cell-based
Jurkat [19] = assay: Effect on changes in cell shape in human Jurkat cells; type: functional, cell-based
Jurkat [20] = assay: Effect on cell cycle in human Jurkat cells assessed as cells in G1 phase; type: functional, cell-based
Jurkat [21] = assay: Effect on cell cycle in human Jurkat cells assessed as cells in S phase; type: functional, cell-based
Jurkat [22] = assay: Effect on gene expression in human Jurkat cells after 16 hrs by Agilent DNA chip analysis; type: functional, cell-based
Jurkat [23] = assay: increase in intracellular ROS level in human Jurkat cells; type: functional, cell-based
NIH3T3 [24] = assay: Effect on microtubule cytoskeleton in mouse 3T3 cells after 24 hrs by anti-tubulin immunofluorescence method in presence of TNFalpha and zVAD-fmk; type: functional, cell-based
NIH3T3 [25] = assay: Effect on morphology of nucleus in mouse 3T3 cells after 24 hrs by TO-PRO-3 staining in presence of TNFalpha and zVAD-fmk; type: functional, cell-based
NIH3T3 [26] = assay: Effect on morphology of golgi apparatus in mouse 3T3 cells after 24 hrs by anti-giantin immunofluorescence in presence of TNFalpha and zVAD-fmk; type: functional, cell-based
NIH3T3 [27] = assay: Effect on morphology of endoplasmic reticulum in mouse 3T3 cells after 24 hrs by anti-KDEL immunofluorescence in presence of TNFalpha and zVAD-fmk; type: functional, cell-based
NIH3T3 [28] = assay: Effect on morphology of mitochondria in mouse 3T3 cells after 24 hrs by anti-cytochrome c immunofluorescence in presence of TNFalpha and zVAD-fmk; type: functional, cell-based
Jurkat [29] = assay: Effect on cell cycle in human Jurkat cells deficient in FADD assessed as cells in sub-G1 phase relative to control; type: functional
Jurkat [30] = assay: Effect on cell cycle in human Jurkat cells deficient in FADD assessed as cells in G1 phase relative to control; type: functional
Jurkat [31] = assay: Effect on cell cycle in human Jurkat cells deficient in FADD assessed as cells in S phase relative to control; type: functional
Jurkat [32] = assay: Effect on cell cycle in human Jurkat cells deficient in FADD assessed as cells in G2/M phase relative to control; type: functional
Jurkat [33] = assay: Effect on cell cycle in human Jurkat cells deficient in FADD assessed as cells in S phase in presence of TNFalpha relative to control; type: functional
Jurkat [34] = assay: Effect on cell cycle in human Jurkat cells deficient in FADD assessed as cells in G2/M phase in presence of TNFalpha relative to control; type: functional

For `CN1C(=O)C(Cc2c[nH]c3ccccc23)NC1=S` (stereo not given) [NECROSTATIN], the inhibition (U-937) was “inactive”, the inhibition [1] was “Active” and the inhibition [2] was “Active”. For the same compound, the inhibition [3] was “Active”, the inhibition [4] was “Active” and the inhibition [5] was “Active”. The inhibition [6] was “Dose-dependent effect”, the inhibition [7] was “Active” and the inhibition [8] was “Active”. The inhibition [9] was “Active”, the inhibition [10] was “Active” and the inhibition [11] was “Active”. The Activity (Jurkat [12]) was “inactive”, the inhibition (Jurkat [13]) was “Active” and the inhibition (Jurkat [14]) was “Active”. The inhibition (Jurkat [15]) was “Active”, the inhibition (Jurkat [16]) was “Active” and the Activity (Jurkat [17]) was “inactive”. For the same compound, the Activity (Jurkat [18]) was “inactive”, the Activity (Jurkat [19]) was “inactive” and the Activity (Jurkat [20]) was “inactive”. For the same compound, the Activity (Jurkat [21]) was “inactive”, the Activity (Jurkat [22]) was “inactive” and the Activity (Jurkat [23]) was “inactive”. The Activity (NIH3T3 [24]) was “inactive”, the Activity (NIH3T3 [25]) was “inactive” and the Activity (NIH3T3 [26]) was “inactive”. The Activity (NIH3T3 [27]) was “inactive”, the Activity (NIH3T3 [28]) was “inactive” and the Activity (Jurkat [29]) was 0.7%. The Activity (Jurkat [30]) was 41.5%, the Activity (Jurkat [31]) was 45.1% and the Activity (Jurkat [32]) was 13.5%. It also gave an Activity (Jurkat [33]) of 44.8% and an Activity (Jurkat [34]) of 12.1%.
